This note sets out measurements from patent US8658639B2, “N-substituted-cyclic amino derivative” (Dainippon Sumitomo Pharma Co., Ltd, priority 2009, dated 2014).

One may read the IC50 as the midpoint of a concentration-inhibition curve.

Series [1] deals with abdominal skin of CD male rats. The experiment in a line: Testing for irritation by single subcutaneous administration to rats. Also noted: key: — No inflammation; Amount of Inflammation: * < ** < *** < ****; Amount of Inflammation: * < ** < *** < ****; Amount of Inflammation: * < ** < *** < ****; Amount of Inflammation: * < ** < *** < ****. To be noted: single subcutaneous administration 0.1 ml, 2% in DMSO and saline. The format is in vivo. The protocol:
Experiment 2: Testing for Irritation by Single Subcutaneous Administration to Rats
A test compound was measured and dissolved in DMSO and a saline solution in a concentration of 2%.

The next series addresses T1, Recombinant human renin (Homo sapiens, UniProt P00797).
T1 sequence (P00797 67-406): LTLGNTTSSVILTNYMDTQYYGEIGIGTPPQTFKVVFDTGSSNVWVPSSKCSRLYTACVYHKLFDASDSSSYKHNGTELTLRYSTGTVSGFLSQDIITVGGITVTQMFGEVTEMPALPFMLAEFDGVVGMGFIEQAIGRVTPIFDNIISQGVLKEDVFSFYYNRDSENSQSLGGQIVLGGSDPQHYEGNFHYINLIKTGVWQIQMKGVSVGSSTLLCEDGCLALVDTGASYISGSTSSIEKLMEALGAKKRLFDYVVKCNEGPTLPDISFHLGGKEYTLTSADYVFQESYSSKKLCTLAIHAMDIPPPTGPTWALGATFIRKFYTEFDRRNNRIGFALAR
The experiment in a line: In vitro renin inhibitory activity assay. The format is biochemical. The note with it: recombinant human renin 4.2 ng/mL, substrate 4 μM, 37° C., one hour, pH 7.4. As for the experimental part:
Experiment 1: In Vitro Renin Inhibitory Activity Assay
Recombinant human renin (4.2 ng/mL) was reacted in 0.1M HEPES buffer (pH 7.4) containing 0.1M NaCl, 1 mM EDTA and 0.1 mg/mL BSA together with a substrate and a test compound at 37° C. for one hour. As the substrate, Arg-Glu(EDANS)-Ile-His-Pro-Phe-His-Leu-Val-Ile-His-Thr-Lys(DABCYL)-Arg (SEQ ID NO: 1) or DABCYL-γ-Abu-Ile-His-Pro-Phe-His-Leu-Val-Ile-His-Thr-EDANS (SEQ ID NO: 2) was added in such an amount so that the final concentration thereof became 4 μM. The elevated fluorescence intensity at the exciting wavelength 340 nm and the fluorescence wavelength 500 nm was measured by a fluorescence plate reader. The concentration of a test compound to be needed to inhibit an enzyme activity in the presence of a test compound in several concentrations by 50% was calculated as an IC50 value. The test compounds were diluted in DMSO and used in this Experiment.

On to `CCC(=O)NCCN1C(=O)C(C)(C)Oc2cc(C)c(C(=O)N(C(C)C)C3CCCN(C(=O)OC(C)OC(=O)C4CCOCC4)C3)cc21` (single isomer, unassigned) [Example 87], for which, in series [1], the “Observation at Administration Site, One day after administration” value (shortened to “Observation … One day after administration”) was “—” and the “Observation at Administration Site, Three days after administration” value (shortened to “Observation … Three days after administration”) is listed as “—”. On Recombinant human renin, the IC50 amounted to 9.6 nM.
Consider `COCCCCN1C(=O)C(C)(C)Oc2cc(C(F)(F)F)c(C(=O)N(C(C)C)[C@@H]3CCCNC3)cc21.Cl` [Comparative Example 1, 4-(4-methoxybutyl)-2,2-dimethyl-3-oxo-N-[(3R)-3-piperidinyl]-N-(2-propanyl)-7-(trifluoromethyl)-3,4-dihydro-2H-1,4-benzoxazine-6-carboxamide hydrochloride, reference compound], for which, in series [1], the “Observation … One day after administration” value is on record as “***” and the “Observation … Three days after administration” value is on record as “****”.
In the case of `CCC(=O)NCCN1C(=O)C(C)(C)Oc2cc(C(F)(F)F)c(C(=O)N(C(C)C)[C@@H]3CCCNC3)cc21.Cl` [Comparative Example 2, 2,2-dimethyl-3-oxo-N-[(3R)-3-piperidinyl]-4-[2-(propanoylamino)ethyl]-N-(2-propanyl)-7-(trifluoromethyl)-3,4-dihydro-2H-1,4-benzoxazine-6-carboxamide hydrochloride, reference compound], in series [1], the “Observation … One day after administration” value is recorded as “****” and the “Observation … Three days after administration” value is on record as “****”.
Turning to `CCC(=O)NCCN1C(=O)C2(CCC2)Oc2cc(C)c(C(=O)N(C(C)C)[C@@H]3CCCNC3)cc21.Cl` [Comparative Example 3, N-isopropyl-7-methyl-3-oxo-N-[(3R)-piperidin-3-yl]-4-[2-(propionylamino)ethyl]-3,4-dihydrospiro[1,4-benzoxazine-2,1′-cyclobutane]-6-carboxamide hydrochloride, reference compound], in series [1], the “Observation … One day after administration” value is “****” and the “Observation … Three days after administration” value is “****”.
Consider `CCC(=O)NCCN1C(=O)C(C)(C)Oc2cc(C)c(C(=O)N(C(C)C)[C@@H]3CCCN(C(=O)OCc4oc(=O)oc4C)C3)cc21` [Example 2, (5-Methyl-2-oxo-1,3-dioxol-4-yl)methyl (3R)-3-[isopropyl({2,2,7-trimethyl-3-oxo-4-[2-(propionylamino)ethyl]-3,4-dihydro-2H-1,4-benzoxazin-6-yl}carbonyl)amino]piperidine-1-carboxylate], for which, in series [1], the “Observation … One day after administration” value was “—” and the “Observation … Three days after administration” value was “—”. The IC50 at Recombinant human renin stood at 5.1 nM.
Turning to `CCC(=O)NCCN1C(=O)C(C)(C)Oc2cc(C)c(C(=O)N(C(C)C)[C@@H]3CCCN(C(=O)OC(C)OC(=O)CCCO)C3)cc21` (stereo partly drawn) [Example 63, 1-[(4-Hydroxybutanoyl)oxy]ethyl (3R)-3-[isopropyl({2,2,7-trimethyl-3-oxo-4-[2-(propionylamino)ethyl]-3,4-dihydro-2H-1,4-benzoxazin-6-yl}carbonyl)amino]piperidine-1-carboxylate], the IC50 on Recombinant human renin was found to be 0.96 nM.
For `CCC(=O)NCCN1C(=O)C(C)(C)Oc2cc(C)c(C(=O)N(C(C)C)[C@@H]3CCCN(C(=O)O[C@@H](C)OC(=O)C(C)C)C3)cc21` [Example 66], the IC50 at Recombinant human renin came to 1230 nM.
For the compound `CCC(=O)NCCN1C(=O)C(C)(C)Oc2cc(C)c(C(=O)N(C(C)C)[C@@H]3CCCN(C(=O)O[C@H](C)OC(=O)C(C)C)C3)cc21` [Example 67], in series [1], the “Observation … One day after administration” value is listed as “**” and the “Observation … Three days after administration” value is “—”. Moreover, at Recombinant human renin, the IC50 was 250 nM.
`Cc1oc(=O)oc1COC(=O)N1CCC[C@@H](N(C(=O)c2cc3c(cc2C(F)(F)F)OC2(CC2)C(=O)N3CCNC(=O)C(F)F)C(C)C)C1` [Example 71]: the IC50 on Recombinant human renin amounted to 2.5 nM.
`CC(OC(=O)C(C)C)OC(=O)N1CCCC(N(C(=O)c2cc3c(cc2C(F)(F)F)OC2(CC2)C(=O)N3CCNC(=O)C(F)F)C(C)C)C1` (centres unmarked) [Example 72]: the IC50 on Recombinant human renin is 22 nM.
As to `CCC(=O)NCCN1C(=O)C(C)(COC)Oc2cc(C(F)(F)F)c(C(=O)N(C(C)C)C3CCCN(C(=O)OC(C)OC(=O)C(C)C)C3)cc21` (centres unmarked) [Example 74], the IC50 on Recombinant human renin stood at 22 nM.
Regarding `CCC(=O)NCCN1C(=O)C(C)(COC)Oc2cc(C(F)(F)F)c(C(=O)N(C(C)C)C3CCCN(C(=O)OC(OC(=O)CC)C(C)C)C3)cc21` (centres unmarked) [Example 75], the IC50 at Recombinant human renin amounted to 0.74 nM.
`CCC(=O)NCCN1C(=O)C(C)(COC)Oc2cc(C(F)(F)F)c(C(=O)N(C(C)C)C3CCCN(C(=O)OC(OC(=O)C(C)C)C(C)C)C3)cc21` (centres unmarked) [Example 76]: the 50% inhibitory concentration (IC50) at Recombinant human renin was 0.56 nM.
Still for that read-out and setting: the result for `CCC(=O)NCCN1C(=O)C2(CCC2)Sc2cc(C)c(C(=O)N(C(C)C)[C@@H]3CCCN(C(=O)OCc4oc(=O)oc4C)C3)cc21` [Example 78] reads 20 nM.
As to `CCC(=O)NCCN1C(=O)C2(CCC2)Oc2cc(C)c(C(=O)N(C(C)C)C3CCCN(C(=O)OC(C)OC(=O)c4ccc(C)cc4)C3)cc21` (centres unmarked) [Example 79, 1-{[(4-Methylphenyl)carbonyl]oxy}ethyl 3-[({7-methyl-3-oxo-4-[2-(propanoylamino)ethyl]-3,4-dihydrospiro[1,4-benzoxazine-2,1′-cyclobutan]-6-yl}carbonyl)(2-propanyl)amino]-1-piperidinecarboxylate], in series [1], the “Observation … One day after administration” value is on record as “***” and the “Observation … Three days after administration” value is “***”. For the same compound, the IC50 at Recombinant human renin was 5.3 nM.
On to `CCC(=O)NCCN1C(=O)C2(CCC2)Oc2cc(C)c(C(=O)N(C(C)C)[C@@H]3CCCN(C(=O)OCc4oc(=O)oc4C)C3)cc21` [Example 81], for which, in series [1], the “Observation … One day after administration” value was “**” and the “Observation … Three days after administration” value is “—”. For the same compound, the IC50 at Recombinant human renin came out at 1.7 nM.
As for `CCC(=O)NCCN1C(=O)C2(CCC2)Oc2cc(C)c(C(=O)N(C(C)C)[C@@H]3CCCN(C(=O)O[C@H](C)OC(=O)C(C)C)C3)cc21` [Example 82], in series [1], the “Observation … One day after administration” value is “**” and the “Observation … Three days after administration” value is recorded as “—”. In addition, on Recombinant human renin, the IC50 was 530 nM.
For the compound `CCC(=O)NCCN1C(=O)C2(CCC2)Oc2cc(C)c(C(=O)N(C(C)C)[C@@H]3CCCN(C(=O)O[C@@H](C)OC(=O)C(C)C)C3)cc21` [Example 83], on Recombinant human renin, the IC50 was 505 nM.
In the case of `CCC(=O)NCCN1C(=O)C2(CCC2)Oc2cc(C)c(C(=O)N(C(C)C)C3CCCN(C(=O)OC(C)OC(=O)CCCOC)C3)cc21` (centres unmarked) [Example 84], the IC50 on Recombinant human renin was determined as 21 nM.
With `CCC(=O)NCCN1C(=O)C(C)(COC)Oc2cc(C)c(C(=O)N(C(C)C)C3CCCN(C(=O)OC(C)OC(=O)CC)C3)cc21` (centres unmarked) [Example 86], the IC50 at Recombinant human renin is 14 nM.
For `CCC(=O)NCCN1C(=O)C2(CCC2)Oc2cc(C)c(C(=O)N(C(C)C)[C@@H]3CCCN(C(=O)OC(C)OC(=O)c4cccnc4)C3)cc21` (stereo partly drawn) [Example 89, 1-[({(3R)-3-[({7-Methyl-3-oxo-4-[2-(propanoylamino)ethyl]-3,4-dihydrospiro[1,4-benzoxazine-2,1′-cyclobutan]-6-yl}carbonyl)(2-propanyl)amino]-1-piperidinyl}carbonyl)oxy]ethyl 3-pyridine carboxylate], the IC50 on Recombinant human renin is 1.9 nM.
As to `CCOC(=O)O[C@@H](C)OC(=O)N1CCC[C@@H](N(C(=O)c2cc3c(cc2C)OC(C)(C)C(=O)N3CCNC(=O)CC)C(C)C)C1` [Example 90], the IC50 on Recombinant human renin is 730 nM.
As to `CCOC(=O)O[C@H](C)OC(=O)N1CCC[C@@H](N(C(=O)c2cc3c(cc2C)OC(C)(C)C(=O)N3CCNC(=O)CC)C(C)C)C1` [Example 91], on Recombinant human renin, the IC50 is 710 nM.
As to `CCC(=O)NCCN1C(=O)[C@](C)(COC)Oc2cc(C)c(C(=O)N(C(C)C)[C@@H]3CCCN(C(=O)O[C@H](C)OC(=O)C(C)C)C3)cc21` [Example 93], in series [1], the “Observation … One day after administration” value is reported as “—” and the “Observation … Three days after administration” value is given as “—”. The IC50 on Recombinant human renin came out at 1900 nM.
Take `CCC(=O)NCCN1C(=O)[C@](C)(COC)Oc2cc(C)c(C(=O)N(C(C)C)[C@@H]3CCCN(C(=O)O[C@@H](C)OC(=O)C(C)C)C3)cc21` [Example 94]: the IC50 at Recombinant human renin stood at 1890 nM.
With `CCC(=O)NCCN1C(=O)C2(CCC2)Oc2cc(C)c(C(=O)N(C(C)C)C3CCCN(C(=O)OC(C)OC(=O)C(F)F)C3)cc21` (centres unmarked) [Example 97], the IC50 on Recombinant human renin is 0.13 nM.
For `CCC(=O)NCCN1C(=O)C(C)(C)Oc2cc(C)c(C(=O)N(C(C)C)C3CCCN(C(=O)OC(C)OC(=O)CC4CC4)C3)cc21` (centres unmarked) [Example 98], the half-maximal inhibitory concentration (IC50) on Recombinant human renin is 9.1 nM.
